Reference: paper PMC6832141, “Synthesis and Cyclooxygenase Inhibition of Sulfonamide-Substituted (Dihydro)Pyrrolo[3,2,1-hi]indoles and Their Potential Prodrugs” (Molecules, 2019)

Key:
[1] = biological target: T1, human COX-2 (Homo sapiens, UniProt P35354); test: COX Fluorescent Inhibitor Screening Assay Kit (Cayman 700100), COX-2; assay type: biochemical; conditions: for IC50: human COX-2, values marked ** : compounds were screened at a concentration of 100 µM; for SI (selectivity index): SI = IC50 (COX-1)/IC50 (COX-2)
T1 construct: purchased Cayman Chemical 700100
T1 sequence (P35354 18-604): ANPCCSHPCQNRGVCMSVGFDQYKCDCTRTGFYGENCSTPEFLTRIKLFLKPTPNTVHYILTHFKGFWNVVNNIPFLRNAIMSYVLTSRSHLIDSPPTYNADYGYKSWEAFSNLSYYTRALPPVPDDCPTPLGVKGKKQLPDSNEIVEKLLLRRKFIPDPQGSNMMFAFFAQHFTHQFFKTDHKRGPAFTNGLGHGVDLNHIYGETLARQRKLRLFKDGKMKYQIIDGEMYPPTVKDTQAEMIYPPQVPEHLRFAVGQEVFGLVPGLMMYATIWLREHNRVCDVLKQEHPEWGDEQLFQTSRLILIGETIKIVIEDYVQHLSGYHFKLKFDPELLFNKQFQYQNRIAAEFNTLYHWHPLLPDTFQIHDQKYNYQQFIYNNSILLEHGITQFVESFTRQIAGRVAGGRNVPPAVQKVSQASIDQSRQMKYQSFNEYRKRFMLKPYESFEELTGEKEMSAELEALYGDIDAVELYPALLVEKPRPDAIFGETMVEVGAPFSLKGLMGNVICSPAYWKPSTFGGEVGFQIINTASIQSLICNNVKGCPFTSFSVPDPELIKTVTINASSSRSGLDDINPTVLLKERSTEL

[2] = biological target: T2, ovine COX-1 (Ovis aries, UniProt P05979); test: COX Fluorescent Inhibitor Screening Assay Kit (Cayman 700100), COX-1; assay type: biochemical; conditions: values marked ** : compounds were screened at a concentration of 100 µM
T2 construct: purchased Cayman Chemical 700100
T2 sequence (P05979 25-600): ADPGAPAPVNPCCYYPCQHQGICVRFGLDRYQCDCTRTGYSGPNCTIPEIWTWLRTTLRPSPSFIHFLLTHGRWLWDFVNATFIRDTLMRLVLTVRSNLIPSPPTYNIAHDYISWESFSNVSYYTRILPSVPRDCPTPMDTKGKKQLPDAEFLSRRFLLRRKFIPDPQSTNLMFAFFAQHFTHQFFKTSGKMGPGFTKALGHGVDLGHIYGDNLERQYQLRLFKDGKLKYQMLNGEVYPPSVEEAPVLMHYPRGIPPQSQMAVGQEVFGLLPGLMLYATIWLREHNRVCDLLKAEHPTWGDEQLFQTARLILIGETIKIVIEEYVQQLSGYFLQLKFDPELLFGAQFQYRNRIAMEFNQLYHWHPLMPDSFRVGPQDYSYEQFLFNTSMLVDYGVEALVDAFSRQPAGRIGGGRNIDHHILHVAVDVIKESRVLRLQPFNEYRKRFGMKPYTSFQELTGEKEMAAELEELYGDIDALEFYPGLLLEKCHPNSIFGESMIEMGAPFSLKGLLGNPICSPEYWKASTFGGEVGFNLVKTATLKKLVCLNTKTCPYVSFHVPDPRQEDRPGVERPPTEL

[3] = Lipophilicity, logD7.4 by HPLC method (Donovan and Pescatore); assay type: physicochemical; conditions: HPLC column ODP-50 4B (Shodex Asahipak 50 × 4.6 mm); pH 7.4, HPLC system 2, MeOH/PBS gradient
Protocol: The lipophilicity of all synthesized compounds was determined as logD7.4HPLC value (Table 1) using an HPLC method originally described by Donovan and Pescatore.
Column chromatography was performed using silica gel (mesh size 40–63 µm). Thin-layer chromatography (TLC) was performed on silica gel F-254 aluminum plates and visualized using UV (254 nm/366 nm). Analytical HPLC analysis was carried out with the following systems: (system 1) Agilent 1200 HPLC (Santa Clara, CA, USA; pump G1311A, autosampler G1329A, column oven G1316A, degasser G1322A, UV detector G1315D, γ detector Gabi Star (Raytest), Luna C18 column (Phenomenex, 250 × 4.6 mm), flow rate = 1 mL/min, isocratic eluent (MeCN/0.1% TFA in H2O 70/30 (v/v)); (system 2) Agilent 1100 HPLC (Santa Clara, CA, USA; binary pump G1312A, autosampler G1313A, column oven G1316A, degasser G1322A, UV detector G1314A, γ detector Gabi Star (Raytest, Straubenhardt, Germany); column ODP-50 4B (Shodex Asahipak 50 × 4.6 mm); eluent: MeOH/PBS (10 mM, pH 7.4) gradient t0 min 30/70 - t25 min 95/5 - t27 min 95/5 - t28 min 30/70 - t40 min 30/70, flow rate = 0.6 mL/min; (system 3) waters UPLC I-Class (Milford, MA, USA; binary gradient pump BSM, autosampler FTN, column manager CM, and diode array detector PDAeλ coupled to Waters Xevo TQ-S), column Aquity UPLC® BEH C18 column (waters, 100 × 2.1 mm, 1.7 µm, 130 Å), eluent: (A): 0.1% acetic acid in MeCN/MeOH 1/1/(B): 0.1% acetic acid in H2O; flow rate 0.4 mL/min), gradient: t0 min 45/55 - t0.5 min 45/55 - t5.5 min 95/5 - t7.0 min 95/5 - t8.0 min 45/55 – t8.5 min 45/55; (system 4) column (Kinetex C-18 (Phenomenex 50 × 2.1 mm, 1.7 µm, 100 Å), Shimadzu Nexera X2 UHPLC system (Kyoto, Japan; degasser DGU-20A3R and DGU-20A5R, pump LC-30AD, autosampler SIL-30AC, column oven CTO-20AC with two column switching valves FCV-14AH, diode array detector SPD-M30A, γ detector Gabi Star (Raytest, Straubenhardt, Germany), communication bus module CBM-20A), eluent: (A): MeCN, (B): 0.1% trifluoroacetic acid in H2O; flow rate 0.5 mL/min), gradient: t0 min 25/75 - t0.3 min 25/75 - t4.0 min 75/25 - t4.5 min 95/5 - t5.5 min 95/5 - t6.0 min 25/75 – t7.5 min 25/75. The products were monitored by an UV detector at 254 nm and purity of all compounds exceeded 95% as determined by analytical HPLC analysis (system 1 or system 3), unless otherwise stated. Semi-preparative HPLC was performed using the following system: column (C-18 Jupiter Proteo (Phenomenex 250 × 21.1 mm, 4 µm, 90 Å), Shimadzu prominence modular HPLC system (Kyoto, Japan; degasser DGU-20A5R, 2× pump LC-20AR, autosampler SIL-20AC HT, column oven CTO-20AC with column switching valve, diode array detector SPD-M20A, fluorescence detector RF-20A, and fraction collector FRC-10A, communication bus module CBM-20A), isocratic eluent 0.1% TFA in MeCN/0.1% TFA in H2O 70/30, flow rate = 10 mL/min.
The logD7.4HPLC value was determined as previously reported by us utilizing an HPLC method originally described by Donovan and Pescatore[18]. […]

[4] = cited from earlier work

Row | SMILES | IC50 [1] [µM] | IC50 [2] [µM] | chromatographic logD [3] | SI (selectivity index) [1] | melting point [°C] | water solubility [4] [mg/mL]
1 | CCC(=O)NS(=O)(=O)c1ccc(-c2c(-c3ccc(F)cc3)c3cccc4c3n2CC4)cc1 [3d, N-({4-[5-(4-fluorophenyl)-1,2-dihydropyrrolo[3,2,1-hi]indol-4-yl]phenyl}sulfonyl)propionamide] | > 100 | > 100 | 2.2 | – | – | –
2 | NS(=O)(=O)c1ccc(-c2c(-c3ccccc3)c3cccc4ccn2c43)cc1 [2a, 1-Phenyl-2-[4-(sulfamoyl)phenyl]pyrrolo[3,2,1-hi]indole] | 0.053 | > 100 | 4.59 | >1887 | 218 to 220 | –
3 | Cc1ccc(-c2c(-c3ccc(S(N)(=O)=O)cc3)n3ccc4cccc2c43)cc1 [2b, 2-[4-(Sulfamoyl)phenyl]-1-(p-tolyl)pyrrolo[3,2,1-hi]indole] | 0.092 | > 100 | 4.73 | >1087 | 233 to 235 | –
4 | Cc1ccc(-c2c(-c3ccc(S(N)(=O)=O)cc3)n3c4c(cccc24)CC3)cc1 [1b, 4-[4-(Sulfamoyl)phenyl]-5-(p-tolyl)-1,2-dihydropyrrolo[3,2,1-hi]indole] | 0.253 | 59.9 | 4.56 | 237 | – | –
5 | NS(=O)(=O)c1ccc(-c2c(-c3ccc(Cl)cc3)c3cccc4ccn2c43)cc1 [2c, 1-(4-Chlorophenyl)-2-[4-(sulfamoyl)phenyl]pyrrolo[3,2,1-hi]indole] | 0.088 | > 100 | 4.89 | >1136 | 270 to 273 | –
6 | CCC(=O)NS(=O)(=O)c1ccc(-c2c(-c3ccccc3)noc2C)cc1 [Parecoxib sodium] | – | – | – | – | – | > 50
7 | NS(=O)(=O)c1ccc(-c2c(-c3ccc(F)cc3)c3cccc4ccn2c43)cc1 [2d, 1-(4-Fluorophenyl)-2-[4-(sulfamoyl)phenyl]pyrrolo[3,2,1-hi]indole] | 0.089 | > 100 | 4.64 | >1124 | 258 to 259 | –
8 | NS(=O)(=O)c1ccc(-c2c(-c3ccc(Cl)cc3)c3cccc4c3n2CC4)cc1 [1c, 5-(4-Chlorophenyl)-4-[4-(sulfamoyl)phenyl]-1,2-dihydropyrrolo[3,2,1-hi]indole] | 0.106 | 15.3 | 4.9 | 144 | – | –
9 | CCC(=O)NS(=O)(=O)c1ccc(-c2c(-c3ccc(Cl)cc3)c3cccc4c3n2CC4)cc1 [3c, N-({4-[5-(4-chlorophenyl)-1,2-dihydropyrrolo[3,2,1-hi]indol-4-yl]phenyl}sulfonyl)propionamide] | 26.4 | > 100 | 2.49 | >3.8 | – | –
10 | NS(=O)(=O)c1ccc(-c2c(-c3ccc(F)cc3)c3cccc4c3n2CC4)cc1 [1d, 5-(4-Fluorophenyl)-4-[4-(sulfamoyl)phenyl]-1,2-dihydropyrrolo[3,2,1-hi]indole] | 0.092 | 7.8 | 4.53 | 85 | – | –
11 | CCC(=O)NS(=O)(=O)c1ccc(-c2c(-c3ccc(Cl)cc3)c3cccc4ccn2c43)cc1 [4c, N-({4-[1-(4-chlorophenyl)pyrrolo[3,2,1-hi]indol-2-yl]phenyl}sulfonyl)propionamide] | 11 | > 100 | 2.6 | >9.1 | – | –
12 | CCC(=O)NS(=O)(=O)c1ccc(-c2c(-c3ccc(C)cc3)c3cccc4ccn2c43)cc1 [4b, N-({4-[1-(p-tolyl)pyrrolo[3,2,1-hi]indol-2-yl]phenyl}sulfonyl)propionamide] | 33.9 | > 100 | 2.48 | >2.9 | – | –
13 | NS(=O)(=O)c1ccc(-c2c(-c3ccccc3)c3cccc4c3n2CC4)cc1 [1a, 5-Phenyl-4-[4-(sulfamoyl)phenyl]-1,2-dihydropyrrolo[3,2,1-hi]indole] | 0.107 | 38 | 4.44 | 355 | – | –
14 | CCC(=O)NS(=O)(=O)c1ccc(-c2c(-c3ccc(F)cc3)c3cccc4ccn2c43)cc1 [4d, N-({4-[1-(4-fluorophenyl)pyrrolo[3,2,1-hi]indol-2-yl]phenyl}sulfonyl)propionamide] | 26.5 | > 100 | 2.3 | >3.8 | – | –
15 | CCC(=O)NS(=O)(=O)c1ccc(-c2c(-c3ccccc3)c3cccc4c3n2CC4)cc1 [3a, N-{[4-(5-phenyl-1,2-dihydropyrrolo[3,2,1-hi]indol-4-yl)phenyl]sulfonyl}propionamide] | > 100 | > 100 | 2.05 | – | – | –
16 | CCC(=O)NS(=O)(=O)c1ccc(-c2c(-c3ccccc3)c3cccc4ccn2c43)cc1 [4a, N-{[4-(1-phenylpyrrolo[3,2,1-hi]indol-2-yl)phenyl]sulfonyl}propionamide] | – | – | 2.24 | – | – | –
17 | CCC(=O)NS(=O)(=O)c1ccc(-c2c(-c3ccc(C)cc3)c3cccc4c3n2CC4)cc1 [3b, N-({4-[5-(p-tolyl)-1,2-dihydropyrrolo[3,2,1-hi]indol-4-yl]phenyl}sulfonyl)propionamide] | > 100 | > 100 | 2.31 | – | – | –
